Assays:
[1] = system: P. aeruginosa PAM1154 carrying pUCP24-KPC-2 (PAM4135); test: MIC, CLSI broth microdilution; format: cell-based; conditions: Pseudomonas aeruginosa; PAM4135, pUCP24-KPC-2; drug alone
From the text: (§1) The effects of KPC mutations on resistance to various antibiotics were investigated. For these studies, pUCP24 plasmids carrying wild-type and mutant blaKPC-2 genes as well as the pUCP24 vector were transformed into PAM1154, an efflux-deficient strain of Pseudomonas aeruginosa. In this host, the effect of β-lactamases on β-lactam MIC is amplified due to the slowed uptake of β-lactams across the low-permeability outer membrane without interference by efflux of either β-lactams or BLIs. Consequently, this host allows detection of β-lactamase activity (as an MIC increase) of low-catalytic-efficiency enzymes that rely heavily on the low permeability of the outer membrane. Using the strain that lacks efflux pumps ensures no interference from efflux in interpreting results. We next evaluated the steady-state protein expression levels in bacterial cells.
(§2) For microbiological studies, wild-type blaKPC-2 and its mutant variants were cloned into the shuttle vector pUCP24. Resulting plasmids were transformed in the efflux-deficient strain of P. aeruginosa PAM1154 using selection on 15 μg/ml of gentamicin. Using a strain of P. aeruginosa as opposed to E. coli as a host for various cloned genes was based on the following consideration. As well documented elsewhere ([41]), P. aeruginosa has a low-permeability outer membrane; consequently, the effect of β-lactamases on MIC is amplified in P. aeruginosa compared to that in E. coli due to the slowed uptake of β-lactams. Thus, this host is appropriate to detect β-lactamase activity (as an MIC increase) of low-catalytic-efficiency enzymes that rely heavily on low permeability of the outer membrane. […] MICs were determined using the Clinical and Laboratory Standards Institute (CLSI) broth microdilution method as described in CLSI document M07-A11 ([42]). […] BLI potency was defined as PV50 (PV, potentiation value). PV50 is the minimal concentration of a BLI that is required to reduce the antibiotic MIC to the middle of the MIC range (E50) where the highest MIC is the MIC for a KPC-producing strain with no inhibitor added and the lowest MIC is the MIC for the vector-only strain, corresponding to the complete inhibition of KPC. E50 is calculated as the square root of the product of the antibiotic MICs for the KPC-producing and the vector-only strains.

[2] = system: P. aeruginosa PAM1154 carrying pUCP24-KPC-2::D179Y (PAM4639); test: MIC, CLSI broth microdilution; format: cell-based, Pseudomonas aeruginosa; conditions: for MIC: Pseudomonas aeruginosa, PAM4639, pUCP24-KPC-2::D179Y, drug alone
From the text: as §1, §2

[3] = system: P. aeruginosa PAM1154 carrying pUCP24-KPC-2::L169P (PAM4751); test: MIC, CLSI broth microdilution; format: cell-based, Pseudomonas aeruginosa; conditions: for MIC: Pseudomonas aeruginosa, PAM4751, pUCP24-KPC-2::L169P, drug alone
From the text: as §1, §2

[4] = system: P. aeruginosa PAM1154 carrying KPC-2::D179Y (PAM4639); test: Checkerboard potentiation of antibiotic activity by BLIs; format: cell-based, Pseudomonas aeruginosa; conditions: for Beta-lactam MIC in the presence of BLI: PAM4639 KPC-2 D179Y
From the text: (§3) BLI potency was defined as PV50 (PV, potentiation value) of antibiotic potentiation. PV50 is the concentration of a BLI that is required to reduce the antibiotic MIC to the middle of the MIC range where the highest MIC is the MIC for a KPC-producing strain with no inhibitor added and the lowest MIC is the MIC for the vector-alone strain, which corresponds to complete inhibition of KPC. As a given MIC is directly related to the β-lactamase activity, PV50 might be considered the concentration of a BLI that is required to achieve half-effect of inhibition of β-lactamase activity (in whole cells) to hydrolyze an antibiotic of interest. […] However, the accurate determination of PV50 requires the MIC range to be relatively wide.
as §2
(§4) […]
(§5) […]

[5] = system: P. aeruginosa PAM1154 carrying KPC-2::L169P (PAM4751); test: as above; format: cell-based, Pseudomonas aeruginosa; conditions: for Beta-lactam MIC in the presence of BLI: PAM4751 KPC-2 L169P
From the text: as §3, §2, §4, §5

[6] = system: P. aeruginosa PAM1154 carrying wild-type KPC-2 (PAM4135); test: as above; format: cell-based, Pseudomonas aeruginosa; conditions: PAM4135 KPC-2
From the text: as §3, §2, §4, §5

## CO/N=C(\C(=O)N[C@@H]1C(=O)N2C(C(=O)[O-])=C(C[N+]3(C)CCCC3)CS[C@H]12)c1csc(N)n1 [Cefepime, cefepime]
[1]
  MIC: 256 µg/mL
[2]; D179Y strain
  reduction of MIC vs wild-type KPC-2 strain: 4 fold
[2]
  MIC: 64 µg/mL
[2]; {}
  increase of MIC vs vector-only strain: 512 fold
[3]; L169P strain
  reduction of MIC vs wild-type KPC-2 strain: 4 fold
[3]
  MIC: 64 µg/mL
[3]; {}
  increase of MIC vs vector-only strain: 512 fold
[4]; PAM4639 KPC-2::D179Y, avibactam 4 μg/ml
  Antibiotic MIC with avibactam at 4 μg/ml: 2 µg/mL
[4]; PAM4639 KPC-2::D179Y, no BLI
  Antibiotic MIC, No BLI: 32 µg/mL
[4]; PAM4639 KPC-2::D179Y, vaborbactam 8 μg/ml
  Antibiotic MIC with vaborbactam at 8 μg/ml: 0.25 µg/mL
[4]; avibactam 0 µg/ml
  Beta-lactam MIC in the presence of BLI: 32 µg/mL
[4]; avibactam 0.008 µg/ml
  Beta-lactam MIC in the presence of BLI: 32 µg/mL
[4]; avibactam 0.031 µg/ml
  Beta-lactam MIC in the presence of BLI: 32 µg/mL
[4]; avibactam 0.06 µg/ml
  Beta-lactam MIC in the presence of BLI: 32 µg/mL
[4]; avibactam 0.5 µg/ml
  Beta-lactam MIC in the presence of BLI: 16 µg/mL
[4]; avibactam 1 µg/ml
  Beta-lactam MIC in the presence of BLI: 4 µg/mL
[4]; avibactam 2 µg/ml
  Beta-lactam MIC in the presence of BLI: 4 µg/mL
[4]; avibactam 4 µg/ml
  Beta-lactam MIC in the presence of BLI: 2 µg/mL
[4]; avibactam 8 µg/ml
  Beta-lactam MIC in the presence of BLI: 1 µg/mL
[4]; avibactam 16 µg/ml
  Beta-lactam MIC in the presence of BLI: 0.5 µg/mL
[4]; vaborbactam 0 µg/ml
  Beta-lactam MIC in the presence of BLI: 32 µg/mL
[4]; vaborbactam 0.008 µg/ml
  Beta-lactam MIC in the presence of BLI: 32 µg/mL
[4]; vaborbactam 0.031 µg/ml
  Beta-lactam MIC in the presence of BLI: 32 µg/mL
[4]; vaborbactam 0.06 µg/ml
  Beta-lactam MIC in the presence of BLI: 32 µg/mL
[4]; vaborbactam 0.5 µg/ml
  Beta-lactam MIC in the presence of BLI: 8 µg/mL
[4]; vaborbactam 1 µg/ml
  Beta-lactam MIC in the presence of BLI: 1 µg/mL
[4]; vaborbactam 2 µg/ml
  Beta-lactam MIC in the presence of BLI: 0.5 µg/mL
[5]; PAM4751 KPC-2::L169P, avibactam 4 μg/ml
  Antibiotic MIC with avibactam at 4 μg/ml: 0.5 µg/mL
[5]; PAM4751 KPC-2::L169P, no BLI
  Antibiotic MIC, No BLI: 32 µg/mL
[5]; avibactam 0 µg/ml
  Beta-lactam MIC in the presence of BLI: 32 µg/mL
[5]; avibactam 0.008 µg/ml
  Beta-lactam MIC in the presence of BLI: 32 µg/mL
[5]; avibactam 0.031 µg/ml
  Beta-lactam MIC in the presence of BLI: 32 µg/mL
[5]; avibactam 0.06 µg/ml
  Beta-lactam MIC in the presence of BLI: 32 µg/mL
[5]; avibactam 0.5 µg/ml
  Beta-lactam MIC in the presence of BLI: 4 µg/mL
[5]; avibactam 1 µg/ml
  Beta-lactam MIC in the presence of BLI: 2 µg/mL
[5]; avibactam 2 µg/ml
  Beta-lactam MIC in the presence of BLI: 1 µg/mL
[5]; avibactam 4 µg/ml
  Beta-lactam MIC in the presence of BLI: 0.5 µg/mL
[5]; vaborbactam 0 µg/ml
  Beta-lactam MIC in the presence of BLI: 32 µg/mL
[5]; vaborbactam 0.008 µg/ml
  Beta-lactam MIC in the presence of BLI: 32 µg/mL
[5]; vaborbactam 0.031 µg/ml
  Beta-lactam MIC in the presence of BLI: 32 µg/mL
[5]; vaborbactam 0.06 µg/ml
  Beta-lactam MIC in the presence of BLI: 32 µg/mL
[5]; vaborbactam 0.5 µg/ml
  Beta-lactam MIC in the presence of BLI: 4 µg/mL
[5]; vaborbactam 1 µg/ml
  Beta-lactam MIC in the presence of BLI: 0.5 µg/mL
[6]; avibactam 0 µg/ml
  Beta-lactam MIC in the presence of BLI: 64 µg/mL
[6]; avibactam 0.008 µg/ml
  Beta-lactam MIC in the presence of BLI: 64 µg/mL
[6]; avibactam 0.031 µg/ml
  Beta-lactam MIC in the presence of BLI: 64 µg/mL
[6]; avibactam 0.06 µg/ml
  Beta-lactam MIC in the presence of BLI: 32 µg/mL
[6]; avibactam 0.5 µg/ml
  Beta-lactam MIC in the presence of BLI: 0.5 µg/mL
[6]; no BLI
  Antibiotic MIC, No BLI: 64 µg/mL
[6]; vaborbactam 0 µg/ml
  Beta-lactam MIC in the presence of BLI: 64 µg/mL
[6]; vaborbactam 0.008 µg/ml
  Beta-lactam MIC in the presence of BLI: 64 µg/mL
[6]; vaborbactam 0.031 µg/ml
  Beta-lactam MIC in the presence of BLI: 64 µg/mL
[6]; vaborbactam 0.06 µg/ml
  Beta-lactam MIC in the presence of BLI: 64 µg/mL
[6]; vaborbactam 0.5 µg/ml
  Beta-lactam MIC in the presence of BLI: 2 µg/mL

## O=C(O)C[C@@H]1CC[C@H](NC(=O)Cc2cccs2)B(O)O1 [Vaborbactam, vaborbactam]
[1]
  MIC: > 256 µg/mL
[2]
  MIC: > 256 µg/mL
[3]
  MIC: > 256 µg/mL
[4]; PAM4639 KPC-2::D179Y, potentiation of cefepime
  PV50: 1 µg/mL
[4]; PAM4639 KPC-2::D179Y, potentiation of ceftazidime
  PV50: 1 µg/mL
[4]; PAM4639 KPC-2::D179Y, potentiation of piperacillin
  PV50: 1 µg/mL
[5]; L169P, depending on the antibiotic
  reduction of potency to enhance ceftazidime, cefepime or piperacillin vs wild-type KPC-2: no more than 2 fold
[5]; PAM4751 KPC-2::L169P, potentiation of cefepime
  PV50: 1 µg/mL
[5]; PAM4751 KPC-2::L169P, potentiation of ceftazidime
  PV50: 1 µg/mL
[5]; PAM4751 KPC-2::L169P, potentiation of piperacillin
  PV50: 1 µg/mL
[6]; potentiation of cefepime
  PV50: 0.5 µg/mL
[6]; potentiation of ceftazidime
  PV50: 0.5 µg/mL
[6]; potentiation of piperacillin
  PV50: 1 µg/mL

Source: publication PMC7179312 (Antimicrobial Agents and Chemotherapy, 2020)
